Source: BigSolDB 2.1

NC(N)=NCCC[C@H](NC(=O)OCc1ccccc1)C(=O)O
solubility (mole fraction)
Details | 283.15 K | 288.15 K | 293.15 K | 298.15 K | 303.15 K | 313.15 K | 323.15 K
in 2-butanone | 9.88e-05 | – | 0.000118 | – | 0.000136 | 0.000164 | 0.000196
in DMF | 0.00164 | – | 0.00346 | – | 0.00597 | 0.00993 | 0.0183
in acetone | 2.5e-05 | – | 4.7e-05 | – | 5.73e-05 | 6.89e-05 | 9.91e-05
in acetonitrile | 1.5e-05 | – | 2.71e-05 | – | 3.52e-05 | 4.03e-05 | 4.82e-05
in dichloromethane | 8.03e-05 | 0.000103 | 0.000144 | 0.000183 | 0.000233 | – | –
in ethanol | 0.000193 | – | 0.000255 | – | 0.000379 | 0.000558 | 0.000898
in ethyl acetate | 4.73e-05 | – | 6.24e-05 | – | 7.31e-05 | 8.72e-05 | 9.78e-05
in isopropanol | 7.15e-05 | – | 0.000127 | – | 0.000163 | 0.000223 | 0.000275
in methanol | 0.000468 | – | 0.000602 | – | 0.00107 | 0.00137 | 0.00207
in n-butanol | 6.05e-05 | – | 0.000103 | – | 0.000141 | 0.000178 | 0.000239
in n-hexane | 4.3e-05 | – | 5.7e-05 | – | 7.42e-05 | 8.12e-05 | 0.000119
in water | 0.000198 | – | 0.000307 | – | 0.000417 | 0.000663 | 0.00104
